Measurements taken from article PMC7346179, “Fe Porphyrin-Based SOD Mimic and Redox-Active Compound, (OH)FeTnHex-2-PyP^4+, in a Rodent Ischemic Stroke (MCAO) Model: Efficacy and Pharmacokinetics as Compared to Its Mn Analogue, (H2O)MnTnHex-2-PyP^5+” (Antioxidants, 2020).

Experiments:
[1] = 3-day PK study in healthy mice; assay type: in vivo; conditions: for liver level: 6 h after last injection
Method: Samples were prepared as described in [10] with modifications to accommodate the small tissue sizes and enhance the detection sensitivity. Quantitative liquid chromatography electrospray-ionization tandem mass spectrometry (LCMS/MS) analysis was performed on a Shimadzu 20A series HPLC (LC)—Applied Biosystems/MDS Sciex API 3200 QTrap or API 4000 QTrap tandem-mass spectrometer (MS/MS) as described earlier. The use of heptafluorobutyric acid (HFBA) mobile phase modifier as an ion-pairing agent increases the overall lipophilicity and volatility, which increases the retention and ionization efficiency of the analytes, affording an abundance of HFBA-associated ions. […] Since oxygen atoms are buried within the porphyrin cavity and thus not easily solvated, these compounds maintain similar redox properties and lipophilicity as their parent hexyl analogs, which makes them co-elute from the HPLC column and thus can be used as internal standards. (OH)FeTnBuOE-2-PyP^4+ was prepared as described for other Fe(III) N-alkylpyridylporphyrins and analogous (H2O)MnTnBuOE-2-PyP^5+ [13, 16]. The solvents employed were: A = 95:5 H2O:MeCN (0.1% HFBA); B = MeCN (0.1% HFBA). […] With the chosen solvent system, all four atropoisomers collapsed into a single peak, enhancing the sensitivity of the method to as low as 0.5 nM (nanomoles per L of tissue homogenate). Analyses were performed using a Phenomenex Luna C18 guard cartridge (ID × L, 2 × 4 mm) only. […] Their structures are also shown. Calibration samples in the 1–300 nM or 0.1–30 μM range (depending on the expected levels of MP) were prepared by adding known amounts of serially diluted pure standards into the plasma or homogenates of related tissues. The response was calculated as the ratio between the standard peak area and the internal standard peak area.
The study was designed to follow the dosing regime in a 3-day mouse MCAO efficacy study. […] Three mice were used per compound in each study. Mice were sacrificed 6 h after the last injection at day 3 and blood and tissues (liver and brain) collected. Blood was centrifuged at 2500 rpm for 10 min and plasma was harvested. Plasma and tissues were analyzed on porphyrin content by LCMS/MS.

[2] = 2-h PK study in rats that underwent MCAO; assay type: in vivo
Method: Samples were prepared as described in [10] with modifications to accommodate the small tissue sizes and enhance the detection sensitivity. Quantitative liquid chromatography electrospray-ionization tandem mass spectrometry (LCMS/MS) analysis was performed on a Shimadzu 20A series HPLC (LC)-Applied Biosystems/MDS Sciex API 3200 QTrap or API 4000 QTrap tandem-mass spectrometer (MS/MS) as described earlier. The use of heptafluorobutyric acid (HFBA) mobile phase modifier as an ion-pairing agent increases the overall lipophilicity and volatility, which increases the retention and ionization efficiency of the analytes, affording an abundance of HFBA-associated ions. […] (OH)FeTnBuOE-2-PyP^4+ was prepared as described for other Fe(III) N-alkylpyridylporphyrins and analogous (H2O)MnTnBuOE-2-PyP^5+ [13, 16]. The solvents employed were: A = 95:5 H2O:MeCN (0.1% HFBA); B = MeCN (0.1% HFBA). […] With the chosen solvent system, all four atropoisomers collapsed into a single peak, enhancing the sensitivity of the method to as low as 0.5 nM (nanomoles per L of tissue homogenate). Analyses were performed using a Phenomenex Luna C18 guard cartridge (ID × L, 2 × 4 mm) only. […] Their structures are also shown. […] The response was calculated as the ratio between the standard peak area and the internal standard peak area. Another possible cause for the failure of therapeutics in stroke may be their slow accumulation in the brain, i.e., not being there in time to prevent the burst of reactive species and rapid activation of transcription factors, which perpetuate oxidative stress. We therefore conducted short-term 2-h PK to evaluate how fast post-MCAO our drug gets into the brain. Three rats per compound were subjected to 90 min of transient right MCAO as reported. The first dose of 0.225 mg/kg was given IV via the […] at 5 min after ischemia/reperfusion. The second dose of 0.225 mg/kg was given SC at 30 min after reperfusion. Blood was collected at 2 h and plasma harvested. Rats were perfused with heparin saline (2000 IU/500 mL) until no reddish fluid came out from the right atrium. Then, the liver, and left and right brain were collected and placed on dry ice and stored at -20 °C. Plasma, liver, and brain were analyzed by LCMS/MS.

[3] = SC and IV 0.5 mg/kg twice daily 3 days

## monohydroxo Fe(III) meso-tetrakis(N-n-hexylpyridinium-2yl)porphyrin [FeHex]
[1]; IV 0.5 mg/kg twice daily 3 days
  liver level: 290 nM
[1]; SC 0.5 mg/kg twice daily 3 days
  liver level: 126 nM
[1]; [3]
  liver levels relative to MnHex: much lower levels
  plasma levels relative to MnHex: Higher levels
[2]; rats after 90-min MCAO, 0.225 mg/kg IV + 0.225 mg/kg SC, 2 h after reperfusion
  level in injured (right) brain hemisphere: ~ 55 nM
[2]; rats after MCAO, 2 h
  liver level relative to MnHex: lower in the liver
  plasma level relative to MnHex: higher in plasma
